Test results published in publication PMC10033419, “Blocking NS3–NS4B interaction inhibits dengue virus in non-human primates” (Nature, 2023).
Values joined by “and” are separate entries in the source; they are usually repeats but may differ in a detail not shown here. Equal entries are not always repeated.

How the values were obtained:
DENV-2 RL strain = experiment: Delayed-treatment study (therapeutic setting); format: in vivo, AG129 mice; details: for Viral Load Log10 / Viral Load Copies/ml: 30 mg/kg/day, individual mice; for Viral (load), log10 of the column before (head empty) / Viral (load; head cut off): JNJ-1802 30 mg/kg
panel of 20 DENV strains = experiment: DENV genotype panel (20 strains) RT-qPCR, Vero E6; format: cell-based, DENV-1–4; details: Dengue virus, DENV4 / genotype 3, Vero C1008, read-out: mean EC50, range
Experimental: A total of 20 DENV strains, representing the available genotypes within the four DENV serotypes, were used in the in vitro genotype panel, from which 19 viruses were described previously in ref. [3] and one additional virus, DENV-1/45AZ5 (ref. [54]), was added.
A potential toxic effect on host cells was tested in parallel, while omitting virus infection, using the MTS/PMS method (Promega) for Vero cells, or by high-content imaging for C6/36 cells, as described previously. […] RT–qPCR data were analysed using the QuantStudio 12K Flex software (v.1.2.3) or SDS v.1.2 Applied Biosystems software. Inhibition values for antiviral molecules were plotted using KaleidaGraph plotting software (v.4.03, Synergy Software).

[1] = rhesus monkey, in vivo
[2] = start treatment day 4 p.i., blood sampling day 7 p.i.
[3] = start treatment day 4 p.i., blood sampling day 8 p.i.
[4] = start treatment day 4 p.i., blood sampling day 9 p.i.
[5] = start treatment day 5 p.i., blood sampling day 3 p.i.
[6] = start treatment day 5 p.i., blood sampling day 4 p.i.
[7] = start treatment day 5 p.i., blood sampling day 5 p.i.
[8] = start treatment day 5 p.i., blood sampling day 6 p.i.
[9] = start treatment day 5 p.i., blood sampling day 7 p.i.
[10] = start treatment day 5 p.i., blood sampling day 8 p.i.
[11] = start treatment day 5 p.i., blood sampling day 9 p.i.
[12] = start treatment day 0 p.i., blood day 10, individual mice, 30 mg/kg
[13] = start treatment day 0 p.i., blood day 12, individual mice
[14] = start treatment day 0 p.i., blood day 14, individual mice, 30 mg/kg
[15] = start treatment day 4 p.i., blood day 10, individual mice, 30 mg/kg
[16] = start treatment day 4 p.i., blood day 12, individual mice
[17] = start treatment day 4 p.i., blood day 14, individual mice, 30 mg/kg
[18] = start treatment day 5 p.i., blood day 10, individual mice, 30 mg/kg
[19] = start treatment day 5 p.i., blood day 12, individual mice, 30 mg/kg
[20] = start treatment day 5 p.i., blood day 14, individual mice

With `COc1cc(N[C@H](C(=O)c2c[nH]c3ccc(OC(F)(F)F)cc23)c2ccc(Cl)cc2OC)cc(S(C)(=O)=O)c1` [JNJ-1802] the “Viral Load Log10” value (DENV-2 RL strain; start treatment day 4 p.i., blood sampling day 6 p.i.) was 4.0690 Log10 and 3.1169 Log10 and 3.3153 Log10 and 4.5619 Log10 and 3.8159 Log10, the “Viral Load Copies/ml” value (DENV-2 RL strain; [2]) was 1.31E+03 Copies/ml and 2.07E+03 Copies/ml and 4.29E+06 Copies/ml and 6.54E+03 Copies/ml and the “Viral Load Log10” value (DENV-2 RL strain; [2]) was 3.1169 Log10 and 3.3153 Log10 and 6.6320 Log10 and 3.8159 Log10. For the same compound, the “Viral Load Copies/ml” value (DENV-2 RL strain; [3]) was 1.31E+03 Copies/ml and 1.87E+03 Copies/ml, the “Viral Load Log10” value (DENV-2 RL strain; [3]) was 3.1169 Log10 and 3.2718 Log10 and the “Viral Load Copies/ml” value (DENV-2 RL strain; [4]) was 1.31E+03 Copies/ml. The “Viral Load Log10” value (DENV-2 RL strain; [4]) was 3.1169 Log10, the “Viral Load Copies/ml” value (DENV-2 RL strain; [5]) was 1.69E+06 Copies/ml and 8.64E+05 Copies/ml and the “Viral Load Log10” value (DENV-2 RL strain; [5]) was 6.8381 Log10 and 6.2281 Log10 and 5.9363 Log10. For the same compound, the “Viral Load Copies/ml” value (DENV-2 RL strain; [6]) was 1.81E+06 Copies/ml and 3.46E+06 Copies/ml and 7.59E+06 Copies/ml and 4.62E+06 Copies/ml, the “Viral Load Log10” value (DENV-2 RL strain; [6]) was 6.2566 Log10 and 6.5396 Log10 and 6.8802 Log10 and 6.6643 Log10 and the “Viral Load Copies/ml” value (DENV-2 RL strain; [7]) was 3.99E+07 Copies/ml and 1.36E+07 Copies/ml and 2.74E+07 Copies/ml and 2.11E+07 Copies/ml and 1.62E+07 Copies/ml. The “Viral Load Log10” value (DENV-2 RL strain; [7]) was 7.5974 Log10 and 7.1163 Log10 and 7.4220 Log10 and 7.3194 Log10 and 7.2021 Log10, the “Viral Load Copies/ml” value (DENV-2 RL strain; [8]) was 1.03E+06 Copies/ml and 1.20E+06 Copies/ml and 1.55E+06 Copies/ml and 4.56E+05 Copies/ml and the “Viral Load Log10” value (DENV-2 RL strain; [8]) was 6.0131 Log10 and 6.0795 Log10 and 6.1913 Log10 and 5.6591 Log10. The “Viral Load Copies/ml” value (DENV-2 RL strain; [9]) was 3.15E+05 Copies/ml, the “Viral Load Log10” value (DENV-2 RL strain; [9]) was 5.4984 Log10 and 4.8630 Log10 and the “Viral Load Copies/ml” value (DENV-2 RL strain; [10]) was 1.31E+03 Copies/ml and 1.96E+03 Copies/ml and 5.65E+04 Copies/ml. The “Viral Load Log10” value (DENV-2 RL strain; [10]) was 3.1169 Log10 and 3.2930 Log10 and 4.7518 Log10, the “Viral Load Copies/ml” value (DENV-2 RL strain; [11]) was 1.31E+03 Copies/ml and 1.37E+04 Copies/ml and the “Viral Load Log10” value (DENV-2 RL strain; [11]) was 3.1169 Log10 and 4.1354 Log10. For the same compound, the “time until viral loads below LLOQ” value (DENV-2 RL strain; 60 mg/kg/day b.i.d., start day 4) was ≤ 48 h, the “Viral (load), log10 of the column before (head empty)” value (“Viral (load), log10” for short) (DENV-2 RL strain; [12]) was 3.1169 and 3.2930 and the “Viral (load; head cut off)” value (DENV-2 RL strain; [12]) was 1.31E+03 and 1.96E+03. The “Viral (load), log10” value (DENV-2 RL strain; [13]) was 3.1169, the “Viral (load; head cut off)” value (DENV-2 RL strain; [13]) was 1.31E+03 and the “Viral (load), log10” value (DENV-2 RL strain; [14]) was 3.1169 and 3.6909. For the same compound, the “Viral (load; head cut off)” value (DENV-2 RL strain; [14]) was 1.31E+03 and 1.57E+03 and 4.91E+03, the “Viral (load), log10” value (DENV-2 RL strain; [15]) was 3.1468 and 3.2930 and 3.1169 and the “Viral (load; head cut off)” value (DENV-2 RL strain; [15]) was 1.40E+03 and 1.96E+03 and 1.64E+03 and 1.31E+03. For the same compound, the “Viral (load), log10” value (DENV-2 RL strain; [16]) was 3.1169, the “Viral (load; head cut off)” value (DENV-2 RL strain; [16]) was 1.31E+03 and the “Viral (load), log10” value (DENV-2 RL strain; [17]) was 3.1169. For the same compound, the “Viral (load; head cut off)” value (DENV-2 RL strain; [17]) was 1.31E+03 and 1.57E+03, the “Viral (load), log10” value (DENV-2 RL strain; [18]) was 4.0084 and 3.1169 and the “Viral (load; head cut off)” value (DENV-2 RL strain; [18]) was 1.02E+04 and 1.31E+03. The “Viral (load), log10” value (DENV-2 RL strain; [19]) was 3.1169 and 4.0709, the “Viral (load; head cut off)” value (DENV-2 RL strain; [19]) was 1.31E+03 and 1.18E+04 and the “Viral (load), log10” value (DENV-2 RL strain; [20]) was 3.1169. For the same compound, the “Viral (load; head cut off)” value (DENV-2 RL strain; [20]) was 1.31E+03, the EC50 (panel of 20 DENV strains) was 0.04 to 1.8 nM and the adverse effects [1] was “No adverse effects were observed”. For the same compound, the weight loss [1] was “not attributable to treatment with JNJ-1802”.
